According to PubChem BioAssay AID1845201 (Molecular Pharmacology Branch, DTP, NCI, 2023):

System: COR L88 complex tumor spheroid viability
Assay: Anticancer human tumor COR L88 cell line growth inhibition;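 also: compound exposure lasted 7 days before viability readout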;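 as to viability, T/C: percent of DMSO vehicle-treated spheroids = 100%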
Conditions: for IC50: curve of first compound; for viability, T/C: stronger effect = lower value; active = viability on the fitted dose curve at most 10% of control; inactive = the rest
Text: Multicellular complex tumor spheroid response to DNA repair inhibitors in combination with DNA-damaging drugs
This study explores the anticancer activities of DNA-damaging drugs and inhibitors of DNA damage repair, both as single agents and in combinations. Complex tumor spheroids comprised of malignant cells, endothelial cells and mesenchymal stem cells served as an in vitro model for human solid tumors. This model system incorporates physiologically relevant features and patient-derived or established malignant cell lines with clinically relevant genetic alterations from many tumor types. Twenty-six patient-derived or established malignant cell lines were evaluated representing sarcoma, melanoma, small cell lung cancer (SCLC), non-small cell lung cancer (NSCLC), as well as bladder, ovarian and pancreatic cancers. The concentration ranges selected for each drug and investigational agent were based upon clinically achievable concentrations if the clinical Cmax of the agent was known.
Compounds. The drugs and compounds olaparib (NSC753686), talazoparib (NSC767125), berzosertib (NSC777718), elimusertib (NSC800525), nedisertib (NSC802822), VX-984 (NSC792969), AZD-1390 (NSC803789), temozolomide (NSC362856), topotecan (NSC609699), trabectedin (NSC813783), staurosporine (NSC755774), and gemcitabine (NSC613327) were obtained from the National Cancer Institute (NCI) Developmental Therapeutics Program Chemical Repository. The FDA-approved anticancer drug set is available from the Developmental Therapeutics Program at https://dtp.cancer.gov/organization/dscb/obtaining/available_plates.htm. […] The stock solutions were prepared in dimethyl sulfoxide (DMSO, Sigma-Aldrich, St. Louis, MO, cat. D2650) at 400-fold the tested concentration and stored at -70 degrees C. Prior to their use, the stock solutions were diluted in fresh medium and the final DMSO concentration in the assay was 0.25% (v/v). All drugs and investigational agents were tested over a range starting from a high concentration at or near the clinical Cmax and decreasing in half-log increments. If the clinical Cmax for an agent had not been determined, the highest concentration tested was 10 microM.
Cell Lines. The patient-derived cancer cell (PDC) lines: 156681-154-R-J1-PDC, 283228-195-R-J1-PDC, 287954-098-R-J1-PDC, 292921-168-R-J2-PDC, 349418-098-R-PDC, 425362-245-T-J1-PDC, 556581-035-R-J1-PDC, and BL0293-F563-PDC were received from the NCI Patient-Derived Models Repository (PDMR, https://pdmr.cancer.gov). The established cell lines HS-SY-2 (RRID:CVCL_8719), MPNST, and SYO-1 (RRID:CVCL_7146) were obtained from the Sloan Kettering Institute. The alveolar soft parts sarcoma cell line ASPS-1 (RRID:CVCL_S738) was established at the NCI and grown from internal seed stocks. The following established cell lines were purchased from the American Type Culture Collection (ATCC, Manassas, VA): G-401 (ATCC, cat. CRL-1441, RRID:CVCL_0270), SW982 (ATCC, cat. HTB-93, RRID:CVCL_1734), VA-ES-BJ (ATCC, cat. CRL-2138, RRID:CVCL_1785), NCI-H719 (ATCC, cat. CRL-5837, RRID:CVCL_1582), NCI-H196 (ATCC, cat. CRL-5823, RRID:CVCL_1509), NCI-H841 (ATCC, cat. CRL-5845, RRID:CVCL_1595), NCI-H1618 (ATCC, cat. CRL-5879, RRID:CVCL_1480), NCI-H1876 (ATCC, cat. CRL-5902, RRID:CVCL_1503), DMS 114 (ATCC, cat. CRL-2066; RRID:CVCL_1174), NCI-H211 (ATCC, cat. CRL-5824; RRID:CVCL_1529), and SW 1271 (ATCC, cat. CRL-2177, RRID:CVCL_1716). The small cell lung cancer cell line COR-L88 was purchased from Sigma-Aldrich (cat. 92031917-1VL, RRID:CVCL_1141). The non-small cell lung cancer cell lines NCI-H226 (RRID:CVCL_1544) and NCI-H322M (RRID:CVCL_1557) were established at the NCI and grown from internal seed stocks. Pooled donor human umbilical vein endothelial cells (HUVEC, Lonza, cat. CC-2519) and human mesenchymal stem cells (hMSC, Lonza, cat. PT-2501) were purchased from Lonza (Walkersville, MD).
Cell Culture. All cells were maintained in an incubator at 37 degrees C and 5% CO2 with 95% humidity. […]

Cn1ncnc1[C@H]1c2n[nH]c(=O)c3cc(F)cc(c23)N[C@@H]1c1ccc(F)cc1 + Cn1nnc2c(C(N)=O)ncn2c1=O
< 9.49 nM: IC50 (second compound 31.6 µM) | IC50 (second compound 100 µM)
124 nM: IC50 (second compound 3.16 µM)
57.7 nM: IC50 (second compound 10 µM)
inactive: viability, T/C (second compound 1 µM, first compound 0.00949 µM) 79.6% | viability, T/C (second compound 1 µM, first compound 0.03 µM) 74% | viability, T/C (second compound 1 µM, first compound 0.0949 µM) 58.4% | viability, T/C (second compound 1 µM, first compound 0.3 µM) 45.8% | viability, T/C (second compound 1 µM, first compound 0.949 µM) 39.8% | viability, T/C (second compound 1 µM, first compound 3 µM) 36.3% | viability, T/C (second compound 3.16 µM, first compound 0.00949 µM) 79.4% | viability, T/C (second compound 3.16 µM, first compound 0.03 µM) 65.2% | viability, T/C (second compound 3.16 µM, first compound 0.0949 µM) 51.1% | viability, T/C (second compound 3.16 µM, first compound 0.3 µM) 45.3% | viability, T/C (second compound 3.16 µM, first compound 0.949 µM) 38.5% | viability, T/C (second compound 3.16 µM, first compound 3 µM) 39.1% | viability, T/C (second compound 10 µM, first compound 0.00949 µM) 58.6% | viability, T/C (second compound 10 µM, first compound 0.03 µM) 54.8% | viability, T/C (second compound 10 µM, first compound 0.0949 µM) 45.9% | viability, T/C (second compound 10 µM, first compound 0.3 µM) 43.1% | viability, T/C (second compound 10 µM, first compound 0.949 µM) 40.8% | viability, T/C (second compound 10 µM, first compound 3 µM) 36.3% | viability, T/C (second compound 31.6 µM, first compound 0.00949 µM) 50.2% | viability, T/C (second compound 31.6 µM, first compound 0.03 µM) 46.1% | viability, T/C (second compound 31.6 µM, first compound 0.0949 µM) 44.2% | viability, T/C (second compound 31.6 µM, first compound 0.3 µM) 39.4% | viability, T/C (second compound 31.6 µM, first compound 0.949 µM) 38.9% | viability, T/C (second compound 31.6 µM, first compound 3 µM) 30.1% | viability, T/C (second compound 100 µM, first compound 0.00949 µM) 44.4% | viability, T/C (second compound 100 µM, first compound 0.03 µM) 41.8% | viability, T/C (second compound 100 µM, first compound 0.0949 µM) 35.1% | viability, T/C (second compound 100 µM, first compound 0.3 µM) 35.1% | viability, T/C (second compound 100 µM, first compound 0.949 µM) 32.6% | viability, T/C (second compound 100 µM, first compound 3 µM) 33.3%
205 nM: IC50 (second compound 1 µM)
